Data taken from patent publication US20100310541A1, “Compositions and Methods for Reducing the Toxicity of Certain Toxins” (IRONWOOD PHARMACEUTICALS, INC., priority 2007, published 2010).
“Also recorded” adds a separate entry of the source.

Target: Escherichia coli heat stable enterotoxin (STa; SEQ ID NO: 1) (Escherichia coli, UniProt P07965)
Type: biochemical
Details: pH 8

With `O[C@H](CS)[C@H](O)CS` (racemic) [DTT, dithiothreitol] the “effect on SEQ ID NO:1 (LC/MS, FIG. 3)” value was “no visible effect”, the “reduction of SEQ ID NO:1 disulfide bonds (FIG. 5)” value was “a small amount of fully reduced peptide; also recorded: complete reduction” and the “reduction of native SEQ ID NO:1 based on peak area (FIG. 4)” value was 47%.
